Here are results for four compounds from patent US20110294892A1, “Use of histone deacetylase inhibitors for the care of Philadephia-negative myeloproliferative syndromes” (priority 2008, published 2011).

Where two headings read alike, the source gives them in different places. Some results are limits rather than exact numbers.

Experiment [1] concerns JAK2^V617F mutated human cell line SET-2. The experiment is described as follows: Cloning efficiency of the human cell line SET-2 in methyl-cellulose. The experiment is classed as cell-based. Particulars: SET-2, 336 h; for EC50: read-out: EC50 (concentration required to reduce of 50% the number of clones). The text has this: For each experimental point 2 Petri dishes were done.

In another experiment the target is rhHDAC1 (Homo sapiens, UniProt Q13547). Put plainly: biochemical.
In experiment [2] the test system is LPS-induced serum TNFα and IFNγ. The following applies: mice, oral administration of 1.0 to 10 mg/kg; cited from earlier work.
Experiment [3] relates to patients with JAK2^V617F mutation suffering from myeloproliferative syndromes (PV, ET, IM). The experiment is described as follows: Phase II open clinical study in JAK2V617F-positive Philadelphia-negative myeloproliferative syndromes. The experiment is classed as in vivo, human. The following applies: 50 mg twice per day. The text has this: Clinical study of ITF2357 in patients suffering from Philadelphia-negative myeloproliferative syndromes. Design: phase II, open, non-randomized study.
Population in the study: 27 patients with the JAK2^V617F mutation suffering from myeloproliferative syndromes not adequately controlled by the standard pharmacological treatment (hydroxyurea).
Duration of the treatment: up to a maximum of 24 weeks of continual administration.
Secondary objective: to evaluate the effect of the treatment on the mutated JAK2 allele burden by quantitative PCR.

Experiment [4] relates to stem cells obtained from patients suffering from PV or ET. The following applies: cited from earlier work.
Experiment [5] deals with lipopolysaccharide (LPS)-stimulated cultured human peripheral blood mononuclear cells (PBMCs). Particulars: cited from earlier work.

rhHDAC1, sequence (Q13547 whole entry): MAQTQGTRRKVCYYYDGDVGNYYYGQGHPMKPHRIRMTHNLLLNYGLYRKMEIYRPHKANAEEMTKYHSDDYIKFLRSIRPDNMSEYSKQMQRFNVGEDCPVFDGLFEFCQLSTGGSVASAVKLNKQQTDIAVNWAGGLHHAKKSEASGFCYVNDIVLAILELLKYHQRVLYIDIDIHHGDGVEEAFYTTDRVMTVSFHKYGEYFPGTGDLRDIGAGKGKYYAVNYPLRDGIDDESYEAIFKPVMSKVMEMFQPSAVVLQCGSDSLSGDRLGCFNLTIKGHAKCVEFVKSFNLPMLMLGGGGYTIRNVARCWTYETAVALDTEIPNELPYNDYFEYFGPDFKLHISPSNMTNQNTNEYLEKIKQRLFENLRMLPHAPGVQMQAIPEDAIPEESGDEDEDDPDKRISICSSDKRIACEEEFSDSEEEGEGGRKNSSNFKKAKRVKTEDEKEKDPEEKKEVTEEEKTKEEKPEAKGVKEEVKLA
Method for rhHDAC1: Values for rhHDAC1 inhibition are also reported: the enzyme was obtained from BPS Biosciences (cat n. 50001) and the test was carried out using a BIOMOL kit, according to supplier instructions.

On to `Nc1ccccc1NC(=O)c1ccc(CNC(=O)OCc2cccnc2)cc1` [SNDX-275], for which the EC50 in experiment [1] was found to be 1820 nM.
As for `CC(=O)SCC(=O)c1ccc(NS(=O)(=O)c2ccc(OCCCN(C)C)cc2)nc1` [KD-5170], the inhibition at 1 µM in experiment [1] (read-out: inhibition of clones formation at 1 μM) is less than 20%. The compound also gave an IC50 on rhHDAC1 of 24 nM.
Turning to `Nc1ccccc1NC(=O)c1ccc(CNc2nccc(-c3cccnc3)n2)cc1` [MGCD-0103], the EC50 in experiment [1] is 1200 nM.
In the case of `CCN(CC)Cc1ccc2cc(COC(=O)Nc3ccc(C(=O)NO)cc3)ccc2c1` [ITF2357, Diethyl-[6-(4-hydroxycarbamoyl-phenylcarbamoyloxymethyl)-naphthalen-2-ylmethyl]-ammonium chloride], the “reduction of LPS-induced serum IFNγ” value in experiment [2] is recorded as “more than 50%”. Also, in experiment [2], the “reduction of LPS-induced serum TNFα” value was “more than 50%”. Also, the EC50 in experiment [1] lay in the range of 28 to 54 nM. For the same compound, the “volume of the spleen” value in experiment [3] (4 to 12 weeks, patients who initially exhibited splenomegaly) is given as “significant reduction”. The “complete or partial response, share of cases” value in experiment [3] (preliminary data, treatment 4 to 12 weeks, PV, ET or myelofibrosis patients) is “approximately 60%”. The “concentrations inhibiting the clonogenic activity of stem cells” value in experiment [4] is recorded as “sub-micromolar”. Also, the IC50 in experiment [5] (read-out: concentration reducing by 50% the production of interferon-γ (IFNγ)) is 25 nM; in experiment [5] (read-out: concentration reducing by 50% the release of intracellular interleukin (IL)-1α) it was 12 nM.
